This note sets out measurements from PubChem BioAssay AID1963974 (Molecular Pharmacology Branch, DTP, NCI, 2024).

This assay deals with 648629-189-R-J1-PDC spheroids with HUVEC/MSC, viability. Nature of the assay: Anticancer human tumor 648629-189-R-J1-PDC patient-derived bladder carcinoma cell line growth inhibition [PI3K]. Conditions: for viability, T/C: stronger effect = lower value. An excerpt: Combinatorial screen of targeted agents with the PI3K inhibitors inavolisib, alpelisib, duvelisib, and copanlisib in multi-cell type tumor spheroids
A high-throughput screen of multi-cell type tumor spheroids was designed to identify active combinations of targeted small molecules and PI3K pathway inhibitors. Complex spheroids include a stromal component modeled by human endothelial cells (HUVEC) and fibroblasts modeled by human mesenchymal stem cells (MSCs). The concentration ranges selected for each drug and investigational agent were based upon clinically achievable concentrations if the clinical Cmax of the agent was known.
Compounds. The drugs and investigational agents: inavolisib (NSC800729), alpelisib (NSC765974), duvelisib (NSC772469), copanlisib (NSC816437), ipatasertib (NSC767898), afuresertib (NSC778305), talazoparib (NSC767125), sapanisertib (NSC764658), selumetinib (NSC741078), tovorafenib (DAY101, NSC766906), vemurafenib (NSC761431), ravoxertinib (NSC781343), sotorasib (NSC818433), MRTX1133 (NSC 836407), abemaciclib (NSC 768073), palbociclib (NSC758247), venetoclax (NSC 766270), SY5609 (NSC837396), enzalutamide (NSC755605), and darolutamide (NSC825331), were obtained from the National Cancer Institute (NCI) Developmental Therapeutics Program Chemical Repository. The FDA-approved anticancer drug set is available from the NCI Developmental Therapeutics Program. […] The stock solutions were prepared in dimethyl sulfoxide (DMSO, Sigma-Aldrich, St. Louis, MO, cat. D2650) at 800-fold the tested concentration and stored at -70 degrees C prior to their use. All drugs and investigational agents were tested over a range starting from a high concentration at or near the clinical Cmax and decreasing in half-log increments. If the clinical Cmax for an agent had not been determined, the highest concentration tested was 10 microM.
Cell Culture. All cells were maintained in an incubator at 37 degrees C and 5% CO2 with 95% humidity. The PDC lines were cultured according to standard operating procedures established by the NCI PDMR (https://pdmr.cancer.gov/sops/default.htm). All PDCs were thawed and cultured in Matrigel-coated flasks prepared with a working solution of 1X Ham's F-12 nutrient mix, without supplementation (Invitrogen, Waltham, MA, cat. 11765054), 100 U/mL penicillin-streptomycin (Invitrogen, cat. 15140122), and 2.5% Matrigel (Corning Inc., Corning, NY, cat. 354248) for the first three passages. The 354836-022-R-J1-PDC, 475296-252-R-J1-PDC, and 997726-040-R-J2-PDC lines were cultured in 6A media, which includes advanced DMEM/F-12 (Thermo Fisher Scientific, cat. 12634028), 10 mM HEPES (Thermo Fisher Scientific, cat. 15630080), 1X GlutaMAX supplement (Thermo Fisher Scientific, cat. 35050061), 0.1 mg/mL primocin (InvivoGen, San Diego, CA, cat. ant-pm-2), 10% defined fetal bovine serum, heat inactivated (HyClone Laboratories Inc., Logan, UT, cat. SH30070.03HI), 50% L-WRN conditioned media (ATCC, cat. CRL-3276), 1.25 mM N-Acetyl-L-cysteine (Sigma-Aldrich, cat. A9165), 10 mM nicotinamide (Sigma-Aldrich, cat. N0636), 1X B-27 supplement (Thermo Fisher Scientific, cat. 17504044), 1X N-2 supplement (Thermo Fisher Scientific, cat. 17502048), and 10 microM Y-27632 dihydrochloride (Tocris Bioscience, Bristol, United Kingdom, cat. 1254). The 624824-186-R-J2-PDC line was cultured in 6C/Colon 1B media, which includes all 6A media components plus 50 ng/mL human EGF recombinant protein (Thermo Fisher Scientific, cat. PHG0311). […]

Where “and” joins values, the source holds several entries; their conditions need not be identical. Equal entries are not always repeated.
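Also: spheroids exposed to agents for seven days before reading.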
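For viability, T/C in this document: percent of vehicle control luminescence where 100% = DMSO treated spheroids.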

Consider `Cn1cnc2c(F)c(Nc3ccc(Br)cc3Cl)c(C(=O)NOCCO)cc21`, for which the viability, T/C runs as follows: (compound 0.00949 µM) 108% and 98.8% (2×) and 95.3%; (compound 0.03 µM) 96.8% [middle of 4 runs]; (compound 0.0949 µM) 99.2% [middle of 4 runs]; (compound 0.3 µM) 94.5% [middle of 4 runs]; (compound 0.949 µM) 103% [middle of 4 runs]; (compound 3 µM) 84.9% [middle of 4 runs]. Moreover, for the setting “curve of compound”, the IC50 was over 3 µM.

Regarding `C#Cc1c(F)ccc2cc(O)cc(-c3ncc4c(N5CC6CCC(C5)N6)nc(OCC56CCCN5CC(F)C6)nc4c3F)c12` (configuration not stated) + Cc1nc(NC(=O)N2CCCC2C(N)=O)sc1-c1ccnc(C(C)(C)C(F)(F)F)c1, the IC50 runs as follows: (curve of first compound, second compound 0.0316 µM) over 10 µM; (curve of first compound, second compound 0.1 µM) over 10 µM; (curve of first compound, second compound 0.316 µM) over 10 µM; (curve of first compound, second compound 1 µM) over 10 µM; (curve of first compound, second compound 3.16 µM) over 10 µM; (curve of first compound, second compound 10 µM) under 0.0316 µM. Besides, the viability, T/C runs as follows: (second compound 0.0316 µM, first compound 0.0316 µM) 100%; (second compound 0.0316 µM, first compound 0.1 µM) 103%; (second compound 0.0316 µM, first compound 0.316 µM) 103%; (second compound 0.0316 µM, first compound 1 µM) 99.6%; (second compound 0.0316 µM, first compound 3.16 µM) 89.3%; (second compound 0.0316 µM, first compound 10 µM) 91.3%. In addition, the viability, T/C runs as follows: (second compound 0.1 µM, first compound 0.0316 µM) 101%; (second compound 0.1 µM, first compound 0.1 µM) 96.8%; (second compound 0.1 µM, first compound 0.316 µM) 97.5%; (second compound 0.1 µM, first compound 1 µM) 87.4%; (second compound 0.1 µM, first compound 3.16 µM) 95.1%; (second compound 0.1 µM, first compound 10 µM) 91.4%. In addition, the viability, T/C (second compound 0.316 µM, first compound 0.0316 µM) was 90.7%; the viability, T/C (second compound 0.316 µM, first compound 0.1 µM) is 88.1%; the viability, T/C (second compound 0.316 µM, first compound 0.316 µM) was 87%; the viability, T/C (second compound 0.316 µM, first compound 1 µM) is 86.1%; the viability, T/C (second compound 0.316 µM, first compound 3.16 µM) is 80.4%; the viability, T/C (second compound 0.316 µM, first compound 10 µM) is 79.5%. The viability, T/C is 77.9% (second compound 1 µM, first compound 0.0316 µM); 77.4% (second compound 1 µM, first compound 0.1 µM); 77% (second compound 1 µM, first compound 0.316 µM); 72.4% (second compound 1 µM, first compound 1 µM); 68.9% (second compound 1 µM, first compound 3.16 µM); 70.5% (second compound 1 µM, first compound 10 µM). Besides, the viability, T/C was 52.7% (second compound 3.16 µM, first compound 0.0316 µM); 56.1% (second compound 3.16 µM, first compound 0.1 µM); 55% (second compound 3.16 µM, first compound 0.316 µM); 52.7% (second compound 3.16 µM, first compound 1 µM); 50.6% (second compound 3.16 µM, first compound 3.16 µM); 54.9% (second compound 3.16 µM, first compound 10 µM). The viability, T/C (second compound 10 µM, first compound 0.0316 µM) was 36.3%; the viability, T/C (second compound 10 µM, first compound 0.1 µM) was 34.2%; the viability, T/C (second compound 10 µM, first compound 0.316 µM) was 34.5%; the viability, T/C (second compound 10 µM, first compound 1 µM) is 34.5%; the viability, T/C (second compound 10 µM, first compound 3.16 µM) was 31.2%; the viability, T/C (second compound 10 µM, first compound 10 µM) was 5.29%.

For the compound `CCCS(=O)(=O)Nc1ccc(F)c(C(=O)c2c[nH]c3ncc(-c4ccc(Cl)cc4)cc23)c1F`, the viability, T/C reads like this: (compound 0.0316 µM) 103% (2×) and 105% and 102%; (compound 0.1 µM) 108% [middle of 4 runs]; (compound 0.316 µM) 112% [middle of 4 runs]; (compound 1 µM) 110% [middle of 4 runs]; (compound 3.16 µM) 91.3% [middle of 4 runs]; (compound 10 µM) 0.48% [middle of 4 runs]. Also, the half-maximal inhibitory concentration (IC50) (curve of compound) is 5.33 µM [middle of 4 runs].

In the case of `C#Cc1c(F)ccc2cc(O)cc(-c3ncc4c(N5CC6CCC(C5)N6)nc(OCC56CCCN5CC(F)C6)nc4c3F)c12` (configuration not stated), the viability, T/C was 105% [middle of 4 runs] (compound 0.0316 µM); 111% and 104% (2×) and 105% (compound 0.316 µM); 104% [middle of 4 runs] (compound 1 µM); 107% [middle of 4 runs] (compound 3.16 µM); 108% and 105% (2×) and 101% (compound 10 µM). Also, the IC50 (curve of compound) was over 10 µM.

`Cn1ncc(Cl)c1-c1cc(C(=O)NC(CN)Cc2cccc(F)c2)sc1Cl` (configuration not stated): the viability, T/C (compound 0.0316 µM) was 111% [middle of 4 runs]; the viability, T/C (compound 0.1 µM) is 86.8% [middle of 4 runs]; the viability, T/C (compound 0.316 µM) is 72.9% [middle of 4 runs]; the viability, T/C (compound 1 µM) was 35.3% [middle of 4 runs]; the viability, T/C (compound 3.16 µM) was 25% [middle of 4 runs]. In addition, the half-inhibitory concentration (IC50) (curve of compound) is 818 nM [middle of 4 runs].

Regarding `COc1c(OCCCN2CCOCC2)ccc2c3n(c(=NC(=O)c4cnc(N)nc4)nc12)CCN3`, the viability, T/C runs as follows: (compound 0.00316 µM) 108% [middle of 8 runs]; (compound 0.01 µM) 103% [middle of 8 runs]; (compound 0.0316 µM) 97.5% [middle of 8 runs]; (compound 0.1 µM) 64.5% [middle of 8 runs]; (compound 0.316 µM) 18.6% [middle of 8 runs]; (compound 1 µM) 3.42% [middle of 8 runs]. Further, where the note is “compound alone, run of 04/25/2023”, the half-maximal inhibitory concentration (IC50) was 144 nM [middle of 7 runs].

Regarding `CC(Cn1ccc(-c2ccc(C#N)c(Cl)c2)n1)NC(=O)c1cc(C(C)O)[nH]n1` (configuration not stated), the viability, T/C is 108% [middle of 4 runs] (compound 0.0316 µM); 94.8% [middle of 4 runs] (compound 0.1 µM); 105% [middle of 4 runs] (compound 0.316 µM); 104% [middle of 4 runs] (compound 1 µM); 88.8% [middle of 4 runs] (compound 3.16 µM); 81.1% [middle of 4 runs] (compound 10 µM). Moreover, the IC50 (curve of compound) was over 10 µM.
